From patent publication US20260165323A1, “USE OF STROBILURIN TYPE COMPOUNDS FOR COMBATING PHYTOPATHOGENIC FUNGI CONTAINING AN AMINO ACID SUBSTITUTION F129L IN THE MITOCHONDRIAL CYTOCHROME B PROTEIN CONFERRING RESISTANCE TO QO […]” (priority 2022, published 2026)

Columns and labels:
Format in all cases: in vivo
Puccinia recondita [1] = experiment: Use Example 4: preventative control of brown rust on wheat (PUCCRT P7); settings: inoculated seven days after spraying, % diseased leaf area
In short: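 First two leaves of potted wheat seedlings sprayed to run-off with compound in acetone/DMSO–emulsifier–water, then inoculated with Puccinia recondita spores seven days later. Plants held 24 h dark at 95–99% RH and 20–24 °C, then 9–11 days in greenhouse; diseased leaf area (%) scored visually.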

[2] = test system: Phakopsora pachyrhizi containing the amino acid substitution F129L in the mitochondrial cytochrome b protein; experiment: Use Example 1: protective control of soybean rust on soybeans (PHAKPA P2); settings: inoculated 2 days after spraying, % diseased leaf area
In short: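 Soybean seedling leaves sprayed to run-off with compound in acetone/DMSO–Wettol–water at the stated concentration, kept 2 days at 23-27° C, then inoculated with Qo-inhibitor-resistant F129L P. pachyrhizi. After 24 h at ~95% RH, 20-24° C, and up to 14 days in greenhouse, % diseased leaf area scored visually.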

[3] = test system: Phakopsora pachyrhizi containing the amino acid substitution F129L in the mitochondrial cytochrome b protein; experiment: Use Example 2: protective control of soybean rust on soybeans (PHAKPA P6); settings: inoculated six days after spraying, % diseased leaf area
In short: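 Compound in acetone and/or DMSO with Wettol (99:1), diluted with water, was sprayed to run-off on potted soybean seedlings. After six days at 23–27°C and 60–80% RH, plants were inoculated with a Qo-resistant F129L strain and held 24 h at about 95% RH. Percent diseased leaf area was scored visually after up to 14 days.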

Puccinia recondita [4] = experiment: Use Example 3: curative control of brown rust on wheat (PUCCRT K4); settings: % diseased leaf area
In short: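 Wheat seedlings inoculated with Puccinia recondita spores, held 24 h at 95–99% RH, 20–24° C in dark, then 3 days in greenhouse before spraying to run-off (curative). Compound in acetone/DMSO–Wettol–water. After 5–7 further days at 20–24° C, 65–70% RH, % diseased leaf area scored visually.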

| SMILES | % PUCCRT Disease level P7 at 4 ppm (Puccinia recondita [1]) | % PUCCRT Disease level P7 at 16 ppm (Puccinia recondita [1]) | % PHAKPA (F129L) Disease level P2 at 4 ppm [2] | % PHAKPA (F129L) Disease level P2 at 16 ppm [2] | % PHAKPA (F129L) Disease level P6 at 4 ppm [3] | % PHAKPA (F129L) Disease level P6 at 16 ppm [3] | % PUCCRT Disease level K4 at 4 ppm (Puccinia recondita [4]) | % PUCCRT Disease level K4 at 16 ppm (Puccinia recondita [4]) |
| --- | --- | --- | --- | --- | --- | --- | --- | --- |
| CNC(=O)/C(=N/OC)c1cccc(Cl)c1CO/N=C(\COC)c1ccc(F)c(F)c1 [compound 97] | 23% | 4% | 3% | 0% | 17% | 1% | 9% | 3% |
| CNC(=O)/C(=N/OC)c1cccc(Cl)c1CO/N=C(\COC)c1cccc(Cl)c1F [compound 99] | 42% | 7% | 21% | 1% | 17% | 2% | 82% | 10% |
| CNC(=O)/C(=N/OC)c1cccc(Cl)c1CO/N=C(\COC)c1ccc(Cl)cc1F [compound 100] | 12% | 4% | 24% | 2% | 20% | 3% | 78% | 6% |
| CO/C=C(/C(=O)OC)c1cccc(Cl)c1CO/N=C(\COC)c1ccc(F)c(F)c1F [compound 101] | 54% | 3% | 2% | 0% | 6% | 0% | 35% | 3% |
| CNC(=O)/C(=N/OC)c1cccc(Cl)c1CO/N=C(\COC)c1c(F)cc(Cl)cc1F [compound 102] | 32% | 6% | 21% | 1% | 16% | 2% | 80% | 36% |
| CO/C=C(/C(=O)OC)c1cccc(Cl)c1CO/N=C(\COC)c1cc(Cl)ccc1F [compound 105] | 44% | 4% | 18% | 2% | 13% | 0% | 42% | 5% |
| CO/C=C(/C(=O)OC)c1cccc(Cl)c1CO/N=C(\COC)c1ccc(Cl)cc1F [compound 106] | 19% | 2% | 14% | 1% | 8% | 1% | 28% | 4% |
| CNC(=O)/C(=N/OC)c1cccc(Cl)c1CO/N=C(\COC)c1cc(Cl)ccc1F [compound 107] | 41% | 7% | 29% | 3% | 19% | 3% | 80% | 9% |
| CNC(=O)/C(=N/OC)c1cccc(Cl)c1CO/N=C(\COC)c1ccc(Cl)c(F)c1 [compound 109] | 5% | 0% | 13% | 2% | 37% | 4% | 63% | 4% |
| CO/C=C(/C(=O)OC)c1cccc(Cl)c1CO/N=C(\COC)c1ccc(Cl)c(F)c1 [compound 110] | 41% | 3% | 1% | 0% | 15% | 0% | 70% | 4% |
| CO/C=C(/C(=O)OC)c1cccc(Cl)c1CO/N=C(\COC)c1c(F)ccc(F)c1F [compound 113] | 70% | 10% | 1% | 0% | 10% | 1% | 77% | 13% |
| CO/C=C(/C(=O)OC)c1cccc(Cl)c1CO/N=C(\COC)c1cccc(C#N)c1 [compound 116] | 15% | 3% | 31% | 3% | 48% | 11% | 5% | 0% |
| CNC(=O)/C(=N/OC)c1cccc(Cl)c1CO/N=C(\COC)c1cccc(C#N)c1 [compound 117] | 14% | 1% | 59% | 5% | 34% | 8% | 18% | 0% |
| CNC(=O)/C(=N/OC)c1cccc(Cl)c1CO/N=C(\COC)c1cccc(OC)c1 [compound 119] | 13% | 1% | 32% | 0% | 36% | 5% | 42% | 2% |
| CO/C=C(/C(=O)OC)c1cccc(Cl)c1CO/N=C(\COC)c1cccc(OC)c1 [compound 121] | 32% | 4% | 4% | 0% | 6% | 0% | 5% | 1% |
| CO/C=C(/C(=O)OC)c1cccc(Cl)c1CO/N=C(\COC)c1ccccc1C [compound 123] | 77% | 33% | 41% | 2% | 38% | 7% | 72% | 21% |
